The values below come from article PMC9518609, “Design and synthesis of new trimethoxylphenyl-linked combretastatin analogues loaded on diamond nanoparticles as a panel for ameliorated solubility and antiproliferative activity” (Journal of Enzyme Inhibition and Medicinal Chemistry, 2022).

In one data set the test system is MDA-MB-231. Put plainly: MTT cytotoxic activity against breast MDA-MB-231 cancer cell line. It counts as cell-based. The following applies: Homo sapiens, MDA-MB-231; MTT assay, 24 h treatment. From the text:
All the synthesised compounds were screened for their cytotoxic activity against breast MDA-MB-231 cancer cell line and compounds 6 and 12 against breast MCF-10A cell line taking CA-4 as a positive control for the analysis. The in vitro cytotoxicity results of the prepared compounds were systematised in Table 1. […] Structurally, the prepared molecules contain three structural variations; including rotatable hydrazide derivatives, the core exchange with imidazolone ring, and the ring expansion with triazinone motif. […] It is noticed that directly attached benzene ring to triazinone scaffold (compound 6) or bioisosteric group (thiazolyl ester) as in compound 12, may contribute to the astonishing cytotoxicity against breast MDA-MB-231 cancer cells.
To measure the cytotoxic activity of the synthesised derivatives 2a–13e in breast cancer (MDA-MB-231) cell line. MTT assay method was applied to assess cell viability assay. All experimental steps were conducted as reported earlier.
Part I: Biological Studies
4.3. Biological evaluation
4.3.1. Cytotoxic activity evaluation
The cytotoxic actvity of the synthesized derivatives 2a-13e was measured in MDA-MB-231 breast cancer cell line and derivatives 6 and 12 in MCF-10A […].
Cell viability assay was assessed using MTT assay method. Cells at density of 1 x 104 were seeded in a 96-well plate at 37 °C for 24 h under 5% CO2. After incubation, the cells were treated with different concentrations of the test schiff bases 2a-13e and incubated for 24 h, then 20 µl of MTT solution at 5 mg/mL was applied and incubated for 4 h at 37 °C.
Dimethyl sulphoxide (DMSO) in volume of 100 µl was added to each well to dissolve the purple formazan that had formed. The color intensity of the formazan product, which represents the growth condition of the cells, is quantified by using an ELISA plate reader (EXL 800, USA) at 570 nm absorbance. The experimental conditions were carried out with at least three replicates, and the experiments were repeated at least three times. […]
For orientation: Formazan colour is commonly taken as a measure of viable cells.

SMILES strings stand for the structures.

Take `COc1cccc(-c2csc(NNC(=O)C(=Cc3cc(OC)c(OC)c(OC)c3)NC(=O)c3cc(OC)c(OC)c(OC)c3)n2)c1` [Compound 11e, 3,4,5-Trimethoxy-N-(3-(2-(4-(3-methoxyphenyl)thiazol-2-yl)hydrazinyl)-3-oxo-1–(3,4,5-trimethoxyphenyl)prop-1-en-2-yl)benzamide]: the melting point was in the range of 212 to 214 °C. This molecule had an IC50 in the data set on MDA-MB-231 above 100 µM.
In turn, `COc1cc(C=C2N=C(c3cc(OC)c(OC)c(OC)c3)N(C(=O)c3cccc(OC(C)=O)c3)NC2=O)cc(OC)c1OC` (hydrate or solvate) [Compound 7, 3-(6-oxo-5–(3,4,5-trimethoxybenzylidene)-3-(3,4,5-trimethoxyphenyl)-1,2,5,6-tetrahydro-1,2,4-triazine-2-carbonyl)phenyl acetate] registered a melting point of 199 to 201 °C.
Turning to `COc1cc(C=C(NC(=O)c2cc(OC)c(OC)c(OC)c2)C(=O)NNC(=O)c2ccc(Br)cc2)cc(OC)c1OC` [Compound 2b, N-(3-(2-(4-bromobenzoyl)hydrazinyl)-3-oxo-1-(3,4,5-trimethoxyphenyl)prop-1-en-2-yl)-3,4,5-trimethoxybenzamide], the melting point fell in the range of 236 to 238 °C. This molecule also returned an IC50 in the data set with MDA-MB-231 of 39.7 ± 1.8 µM.
For `COc1cc(C=C(NC(=O)c2cc(OC)c(OC)c(OC)c2)C(=O)NNc2nc(-c3cccc([N+](=O)[O-])c3)cs2)cc(OC)c1OC` [Compound 11d, 3,4,5-Trimethoxy-N-(3-(2-(4-(3-nitrophenyl)thiazol-2-yl)hydrazinyl)-3-oxo-1–(3,4,5-trimethoxyphenyl)prop-1-en-2-yl)benzamide], in that order: 212 to 214 °C and 12.2 ± 0.65 µM.
`COc1cccc(-c2csc(N3NC(=O)C(=Cc4cc(OC)c(OC)c(OC)c4)N=C3c3cc(OC)c(OC)c(OC)c3)n2)c1` [Compound 13e, 2-(4-(3-Methoxyphenyl)thiazol-2-yl)-5-(3,4,5-trimethoxybenzylidene)-3-(3,4,5-trimethoxyphenyl)-1,2-dihydro-1,2,4-triazin-6(5H)-one] showed a melting point of 212 to 214 °C. Moreover, the half-maximal inhibitory concentration (IC50) in the data set on MDA-MB-231 came out at 33.5 ± 2.47 µM.
Consider `COc1cc(C=C(NC(=O)c2cc(OC)c(OC)c(OC)c2)C(=O)NNC(=O)c2ccncc2)cc(OC)c1OC` [Compound 2c, N-(3-(2-isonicotinoylhydrazinyl)-3-oxo-1-(3,4,5-trimethoxyphenyl)prop-1-en-2-yl)-3,4,5-trimethoxybenzamide], for which the melting point was 227 to 229 °C. In addition, in the data set with MDA-MB-231, the IC50 was determined as 13.2 ± 0.71 µM.
For `CCOC(=O)Cc1csc(NNC(=O)C(=Cc2cc(OC)c(OC)c(OC)c2)NC(=O)c2cc(OC)c(OC)c(OC)c2)n1` [Compound 10, ethyl 2-(2-(2-(2-(3,4,5-trimethoxybenzamido)-3-(3,4,5-trimethoxyphenyl)acryloyl)hydrazinyl)thiazol-4-yl)acetate], in that order: 210 to 212 °C and 4.8 ± 0.21 µM.
Taken in the same sequence, the figures for `COc1cc(C=C(NC(=O)c2cc(OC)c(OC)c(OC)c2)C(=O)NNc2nc(-c3ccc(Cl)cc3)cs2)cc(OC)c1OC` [Compound 11b, N-(3-(2-(4-(4-chlorophenyl)thiazol-2-yl)hydrazinyl)-3-oxo-1-(3,4,5-trimethoxyphenyl)prop-1-en-2-yl)-3,4,5-trimethoxybenzamide] were 212 to 214 °C and 8.59 ± 2.38 µM.
Molecule `COc1cc(C=C2N=C(c3cc(OC)c(OC)c(OC)c3)N(c3nc(-c4ccc(Cl)cc4)cs3)NC2=O)cc(OC)c1OC` [Compound 13b, 2-(4-(4-Chlorophenyl)thiazol-2-yl)-5-(3,4,5-trimethoxybenzylidene)-3-(3,4,5-trimethoxyphenyl)-1,2-dihydro-1,2,4-triazin-6(5H)-one] showed a melting point of 212 to 214 °C. In the data set on MDA-MB-231, the concentration for half-maximal inhibition (IC50) amounted to 20.7 ± 1.58 µM.
The molecule `COc1cc(C=C2N=C(c3cc(OC)c(OC)c(OC)c3)N(C(N)=S)NC2=O)cc(OC)c1OC` (hydrate or solvate) [Compound 9, 6-oxo-5-(3,4,5-trimethoxybenzylidene)-3-(3,4,5-trimethoxyphenyl)-5,6-dihydro-1,2,4-triazine-2(1H)-carbothioamide] yielded a melting point of 239 to 241 °C.
`COc1cc(C=C2N=C(c3cc(OC)c(OC)c(OC)c3)NC2=O)cc(OC)c1OC` [Compound 4, 4-(3,4,5-trimethoxybenzylidene)-2-(3,4,5-trimethoxyphenyl)-1H-imidazol-5(4H)-one] yielded a melting point of 212 to 214 °C. The same molecule had a 50% inhibitory concentration (IC50) with MDA-MB-231 of 36.8 ± 2.81 µM.
Taken in the same sequence, the figures for `COc1cc(C=C2N=C(c3cc(OC)c(OC)c(OC)c3)N(c3nc(-c4ccccc4)cs3)NC2=O)cc(OC)c1OC` [Compound 13a, 2-(4-Phenylthiazol-2-yl)-5-(3,4,5-trimethoxybenzylidene)-3–(3,4,5-trimethoxyphenyl)-1,2-dihydro-1,2,4-triazin-6(5H)-one] were 212 to 214 °C and 19.6 ± 1.42 µM.
For `COc1cc(C=C2N=C(c3cc(OC)c(OC)c(OC)c3)N(C(N)=S)NC2=O)cc(OC)c1OC` [Compound 9, 6-oxo-5-(3,4,5-trimethoxybenzylidene)-3-(3,4,5-trimethoxyphenyl)-5,6-dihydro-1,2,4-triazine-2(1H)-carbothioamide], in the data set on MDA-MB-231, the midpoint of inhibition, the IC50, lay at 4.14 ± 0.22 µM.
For `COc1cc(C=C(NC(=O)c2cc(OC)c(OC)c(OC)c2)C(=O)NNC(=O)c2cccc(O)c2)cc(OC)c1OC` [Compound 2a, N-(3-(2-(3-hydroxybenzoyl)hydrazinyl)-3-oxo-1-(3,4,5-trimethoxyphenyl)prop-1-en-2-yl)-3,4,5-trimethoxybenzamide], the melting point fell in the range of 241 to 243 °C. In addition, the IC50 with MDA-MB-231 worked out at 21.7 ± 1.17 µM.
Regarding `COc1cc(C=C2N=C(c3cc(OC)c(OC)c(OC)c3)N(C(=O)c3cccc(OC(C)=O)c3)NC2=O)cc(OC)c1OC` [Compound 7, 3-(6-oxo-5–(3,4,5-trimethoxybenzylidene)-3-(3,4,5-trimethoxyphenyl)-1,2,5,6-tetrahydro-1,2,4-triazine-2-carbonyl)phenyl acetate], inhibition in the data set with MDA-MB-231 was half-maximal at 13.7 ± 1.04 µM (IC50).
In the case of `COc1cc(C=C(NC(=O)c2cc(OC)c(OC)c(OC)c2)C(=O)NNC(=S)Nc2ccccc2)cc(OC)c1OC` [Compound 3, 3,4,5-trimethoxy-N-(3-oxo-3-(2-(phenylcarbamothioyl)hydrazinyl)-1-(3,4,5-trimethoxyphenyl)prop-1-en-2-yl)benzamide], the melting point lay within 212 to 214 °C. This molecule displayed an IC50 in the data set on MDA-MB-231 of 14.9 ± 0.8 µM.
Taken in the same sequence, the figures for `COc1cc(C(=O)N/C=C(\C(=O)NNc2nc(-c3ccccc3)cs2)c2cc(OC)c(OC)c(OC)c2)cc(OC)c1OC` [Compound 11a, 3,4,5-Trimethoxy-N-(3-oxo-3-(2-(4-arylthiazol-2-yl)hydrazinyl)-1-(3,4,5-trimethoxyphenyl)prop-1-en-2-yl)benzamide] were 212 to 214 °C and 6.21 ± 0.47 µM.
Taken in the same sequence, the figures for `COc1cc(C=C2N=C(c3cc(OC)c(OC)c(OC)c3)N(c3nc(-c4cccc([N+](=O)[O-])c4)cs3)NC2=O)cc(OC)c1OC` [Compound 13d, 2-(4-(3-Nitrophenyl)thiazol-2-yl)-5-(3,4,5-trimethoxybenzylidene)-3-(3,4,5-trimethoxyphenyl)-1,2-dihydro-1,2,4-triazin-6(5H)-one] were 212 to 214 °C and 3.16 ± 0.17 µM.
The molecule `COc1cc(C=C2N=C(c3cc(OC)c(OC)c(OC)c3)N(N)C2=O)cc(OC)c1OC` [Compound 5, 1-amino-4-(3,4,5-trimethoxybenzylidene)-2-(3,4,5-trimethoxyphenyl)-1H-imidazol-5(4H)-one] gave a melting point of 205 to 207 °C. Further, in the data set on MDA-MB-231, the IC50 stood at 57.1 ± 3.23 µM.
For `COc1cc(C=C2N=C(c3cc(OC)c(OC)c(OC)c3)N(c3nc(-c4ccc(Br)cc4)cs3)NC2=O)cc(OC)c1OC` [Compound 13c, 2-(4-(4-Bromophenyl)thiazol-2-yl)-5-(3,4,5-trimethoxybenzylidene)-3-(3,4,5-trimethoxyphenyl)-1,2-dihydro-1,2,4-triazin-6(5H)-one], in that order: 212 to 214 °C and 10.1 ± 0.54 µM.
Taken in the same sequence, the figures for `COc1cc(C=C(NC(=O)c2cc(OC)c(OC)c(OC)c2)C(=O)NNc2nc(-c3ccc(Br)cc3)cs2)cc(OC)c1OC` [Compound 11c, N-(3-(2-(4-(4-bromophenyl)thiazol-2-yl)hydrazinyl)-3-oxo-1-(3,4,5-trimethoxyphenyl)prop-1-en-2-yl)-3,4,5-trimethoxybenzamide] were 212 to 214 °C and 25.7 ± 1.9 µM.
On to `COc1cc(C=C(NC(=O)c2cc(OC)c(OC)c(OC)c2)C(=O)NNC(N)=S)cc(OC)c1OC` [Compound 8, N-(3-(2-carbamothioylhydrazinyl)-3-oxo-1-(3,4,5-trimethoxyphenyl)prop-1-en-2-yl)-3,4,5-trimethoxybenzamide], for which the midpoint of inhibition with MDA-MB-231, the IC50, lay at 31.5 ± 1.82 µM.

In general, melting point refers to the temperature of the solid-liquid transition. For orientation: IC50 means the concentration that gives 50% inhibition.
